Measured values taken from patent publication US11819552B2, “Antibody-drug conjugates targeting uPARAP” (RIGSHOSPITALET, priority 2016, dated 2023).
Where a SMILES comes first, the peptide text is derived from it. [ ]: non-standard residue; d: D form. The star is where a group is joined. Dolaproine = CO[C@@H]([C@@H]1CCCN1)[C@@H](C)C(=O)O; Dil = CC[C@H](C)[C@H](NC)[C@@H](CC(=O)O)OC; X1 = C[C@@H](N*)[C@@H](O)c1ccccc1; NMeV = CN[C@H](C(=O)O)C(C)C

B1: 2h9 cloned: recombinant mAb 2h9 product produced in CHO cells from SEQ ID NO: 1 and SEQ ID NO: 5 (protein)
light: DIQMTQSPASQSASLGESVTITCLASQTIGTWLAWYQQKPGKSPQLLIYAATTLTDGVPSRFSGAGSGTKFSLKISSLQAEDFASYFCQEFFSTPFTFGSGTKLELKRADAAPTVSIFPPSSEQLTSGGASVVCFLNNFYPKDINVKWKIDGGERQNGVLNSWTDQDSKDSTYSMSSTLTLTKDEYERHNSYTCEATHKTSTSPIVKSFNRNEC
heavy: QVQLQQPGTELVRPGLSVKLSCKASGYTFTSYWMNWVKQRPGQGLEWIGMIHPSNDEKRINQKFKDKATLTVDKFSSTVYMQVSSPTSEDSAVYYCARGGGDYVGDYALDFWGQGTSVTVSSAKTTPPSVYPLAPGSAAQTNSMVTLGCLVKGYFPEPVTVTWNSGSLSSGVHTFPAVLQSDLYTLSSSVTVPSSTWPSETVTCNVAHPASSTKVDKKIVPRDCGCKPCICTVPEVSSVFIFPPKPKDVLTITLTPKVTCVVVDISKDDPEVQFSWFVDDVEVHTAQTQPREEQFNSTFRSVSELPIMHQDWLNGKEFKCRVNSAAFPAPIEKTISKTKGRPKAPQVYTIPPPKEQMAKDKVSLTCMITDFFPEDITVEWQWNGQPAENYKNTQPIMDTDGSYFIYSKLNVQKSNWEAGNTFTCSVLHEGLHNHHTEKSLSHSPGK

Tests used:
[1] = test system: HT1080 cells; test: Cell cycle distribution analysis; assay type: cell-based; conditions: 3-day incubation, 50 nM free toxin
Experimental: (§1) Cell cycle analysis was performed using a Nucleocounter NC-3000 system (ChemoMetec Denmark), using the manufacturers standard protocol for analyzing the cell cycle distribution of a population of cells, based on the DNA content of each cell. The percentage of cells in Sub-G1, G1, S, or G2/M-phases of the cell cycle was established from histogram analysis using the NucleoView NC-3000 software.

[2] = test system: U937 cells; test: Cell cycle distribution analysis; assay type: cell-based; conditions: 3-day incubation, 50 nM free toxin
Experimental: as §1

[3] = test system: THP-1 cells; test: Cell cycle distribution analysis; assay type: cell-based; conditions: 3-day incubation, 50 nM free toxin
Experimental: as §1

[4] = test system: KNS42 cells; test: Cell cycle distribution analysis; assay type: cell-based; conditions: 3-day incubation, 50 nM free toxin
Experimental: as §1

[5] = molecular target: T1, uPARAP (Homo sapiens, UniProt Q9UBG0); test: Western blotting of MG63 cell lysate; assay type: binding; parameters: endogenous in cells; host or cells: MG63 human osteosarcoma cells; conditions: detergent lysate of uPARAP-positive MG63 human osteosarcoma cells
T1 sequence (Q9UBG0 31-1479): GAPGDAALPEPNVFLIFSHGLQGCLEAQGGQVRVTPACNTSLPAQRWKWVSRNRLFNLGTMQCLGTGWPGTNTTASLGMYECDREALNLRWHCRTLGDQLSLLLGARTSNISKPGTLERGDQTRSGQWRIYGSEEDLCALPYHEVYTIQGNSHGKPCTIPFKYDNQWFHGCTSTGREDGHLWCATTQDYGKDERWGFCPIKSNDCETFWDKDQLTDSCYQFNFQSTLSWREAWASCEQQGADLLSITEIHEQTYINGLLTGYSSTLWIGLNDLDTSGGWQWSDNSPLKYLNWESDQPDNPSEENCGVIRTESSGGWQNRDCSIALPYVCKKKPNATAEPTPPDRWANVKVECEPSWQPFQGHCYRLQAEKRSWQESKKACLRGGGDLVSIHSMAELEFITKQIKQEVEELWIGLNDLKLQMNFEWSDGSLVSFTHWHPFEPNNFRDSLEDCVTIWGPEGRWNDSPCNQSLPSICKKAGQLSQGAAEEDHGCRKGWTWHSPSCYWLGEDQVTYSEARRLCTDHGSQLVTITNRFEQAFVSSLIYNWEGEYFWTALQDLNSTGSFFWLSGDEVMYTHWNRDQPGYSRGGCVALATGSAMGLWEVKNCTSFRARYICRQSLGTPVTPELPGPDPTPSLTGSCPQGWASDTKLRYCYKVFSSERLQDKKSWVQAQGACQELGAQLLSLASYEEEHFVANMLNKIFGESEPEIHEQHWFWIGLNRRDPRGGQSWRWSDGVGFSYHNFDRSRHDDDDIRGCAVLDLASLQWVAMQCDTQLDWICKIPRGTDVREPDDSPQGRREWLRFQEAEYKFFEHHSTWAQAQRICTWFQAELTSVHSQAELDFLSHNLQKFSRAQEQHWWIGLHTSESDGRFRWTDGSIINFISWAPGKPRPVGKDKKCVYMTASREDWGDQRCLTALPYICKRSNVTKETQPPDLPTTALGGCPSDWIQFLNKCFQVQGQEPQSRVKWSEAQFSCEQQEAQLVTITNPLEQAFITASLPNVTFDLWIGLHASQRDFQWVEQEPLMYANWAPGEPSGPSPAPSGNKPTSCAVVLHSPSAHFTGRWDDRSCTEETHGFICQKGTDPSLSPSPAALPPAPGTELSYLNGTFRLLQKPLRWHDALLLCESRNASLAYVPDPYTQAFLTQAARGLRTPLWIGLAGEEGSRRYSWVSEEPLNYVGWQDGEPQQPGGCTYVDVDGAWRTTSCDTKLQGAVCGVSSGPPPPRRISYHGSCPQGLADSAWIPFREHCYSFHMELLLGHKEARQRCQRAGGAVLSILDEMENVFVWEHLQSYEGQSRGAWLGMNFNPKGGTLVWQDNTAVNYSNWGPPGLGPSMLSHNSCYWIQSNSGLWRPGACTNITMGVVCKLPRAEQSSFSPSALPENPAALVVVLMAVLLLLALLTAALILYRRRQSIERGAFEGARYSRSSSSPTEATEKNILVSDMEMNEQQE
Experimental: For Western blotting, a detergent cell lysate prepared from uPARAP-positive MG63 human osteosarcoma cells was analyzed, using identical concentrations of “2h9 cloned” and “2h9 original” as the primary antibodies. […] No reaction is seen in the absence of primary antibody (negative control).

Reactivity in Western blotting ([5]; listed as recombinant antibody product) | Molecule | Cell cycle distribution [1] | Cell cycle distribution [2] | Cell cycle distribution [3] | Cell cycle distribution [4] | Reactivity in Western blotting [5]
– | CC[C@H](C)[C@@H]([C@@H](CC(=O)N1CCC[C@H]1[C@H](OC)[C@@H](C)C(=O)N[C@H](C)[C@@H](O)c1ccccc1)OC)N(C)C(=O)[C@@H](NC(=O)[C@@H](NC)C(C)C)C(C)C [MMAE, monomethyl auristatin E, reference compound] (H-[NMeV]V[Dil][Dolaproine]-X1) | shift in cell cycle distribution towards the Sub-G1 and G2/M phases | shift in cell cycle distribution towards the Sub-G1 and G2/M phases | shift in cell cycle distribution towards the Sub-G1 and G2/M phases | shift in cell cycle distribution towards the Sub-G1 and G2/M phases | –
specifically recognize uPARAP | B1 | – | – | – | – | react specifically with the uPARAP protein
